# Assay results from patent US20070117776A1, “Low Dose Therapy Of DNA Methylation Inhibitors” (priority 2005, published 2007).
# Like-named read-outs stand apart in the source and are kept apart here.
# Assay type: physicochemical
# Protocol: Maintaining the solution at low temperature and buffering the drug can control degradation kinetics of aqueous solutions but the stability achieved is not sufficient to render the product stable during its entire proposed shelf life. A dry solid formulation of decitabine which is stable was achieved by lyophilization of an aqueous solution. The process of lyophilization to obtain a solid form is considered essential for maximizing the stability of the product.
# A bulk solution of 5 mg/mL of decitabine was prepared during compounding. To minimize degradation during compounding of the bulk solution prior to lyophilization, the bulk solution was maintained at low temperature, and the time the drug remains in solution prior to lyophilization was minimized. Maximum solution stability was achieved by dissolving the drug in a pH 6.8-7.0 phosphate buffer solution at 0-4° C.
# Based on the results, appropriate recommendations for the preparation and storage of the reconstituted and diluted solutions can be made to pharmacists and clinical practitioners. The product was reconstituted in 10 mL WFI and diluted with one of the three pre-chilled infusion fluids indicated in Table 1 and Table 2 to two different concentrations, 0.1 mg/mL and 1 mg/mL covering the entire concentration range expected to be used in the clinical setting. The diluted solutions were stored for one to ten hours in infusion bags in the refrigerator at 2-8° C. to simulate conditions prior to infusion and then removed and placed at room temperature to simulate conditions during infusion. Bags placed in the refrigerator for one hour were removed and placed at room temperature and sampled thereafter for the next three hours at room temperature (Experiment No. 1) while the bags placed in the refrigerator for ten hours were removed and sampled for the next two hours at room temperature (Experiment No. 2).
# The method used to estimate degradation products is based on percent peak area measurements assuming the degradation products have a response factor of 1, with respect to decitabine.
# Table 1 and Table 2 also show the pH data obtained after the preparation of the infusion, which is consistently within ±0.3 pH units of neutral pH.
# [1] = 0.1 mg/mL in 0.9% NaCl, Experiment 1 (2-8° C. one hour, then room temperature), at 0 h
# [2] = 0.1 mg/mL in 0.9% NaCl, Experiment 1 (2-8° C. one hour, then room temperature), at 1 h
# [3] = 0.1 mg/mL in 0.9% NaCl, Experiment 1 (2-8° C. one hour, then room temperature), at 2 h
# [4] = 0.1 mg/mL in 0.9% NaCl, Experiment 1 (2-8° C. one hour, then room temperature), at 3 h
# [5] = 0.1 mg/mL in 0.9% NaCl, Experiment 1 (2-8° C. one hour, then room temperature), at 4 h
# [6] = 0.1 mg/mL in 0.9% NaCl, Experiment 2 (2-8° C. ten hours, then room temperature), at 0 h
# [7] = 0.1 mg/mL in 0.9% NaCl, Experiment 2 (2-8° C. ten hours, then room temperature), at 10 h
# [8] = 0.1 mg/mL in 0.9% NaCl, Experiment 2 (2-8° C. ten hours, then room temperature), at 11 h
# [9] = 0.1 mg/mL in 0.9% NaCl, Experiment 2 (2-8° C. ten hours, then room temperature), at 12 h
# [10] = 0.1 mg/mL in 5% Dextrose, Experiment 1 (2-8° C. one hour, then room temperature), at 0 h
# [11] = 0.1 mg/mL in 5% Dextrose, Experiment 1 (2-8° C. one hour, then room temperature), at 1 h
# [12] = 0.1 mg/mL in 5% Dextrose, Experiment 1 (2-8° C. one hour, then room temperature), at 2 h
# [13] = 0.1 mg/mL in 5% Dextrose, Experiment 1 (2-8° C. one hour, then room temperature), at 3 h
# [14] = 0.1 mg/mL in 5% Dextrose, Experiment 1 (2-8° C. one hour, then room temperature), at 4 h
# [15] = 0.1 mg/mL in 5% Dextrose, Experiment 2 (2-8° C. ten hours, then room temperature), at 0 h
# [16] = 0.1 mg/mL in 5% Dextrose, Experiment 2 (2-8° C. ten hours, then room temperature), at 10 h
# [17] = 0.1 mg/mL in 5% Dextrose, Experiment 2 (2-8° C. ten hours, then room temperature), at 11 h
# [18] = 0.1 mg/mL in 5% Dextrose, Experiment 2 (2-8° C. ten hours, then room temperature), at 12 h
# [19] = 0.1 mg/mL in Lactated Ringer's, Experiment 1 (2-8° C. one hour, then room temperature), at 0 h
# [20] = 0.1 mg/mL in Lactated Ringer's, Experiment 1 (2-8° C. one hour, then room temperature), at 1 h
# [21] = 0.1 mg/mL in Lactated Ringer's, Experiment 1 (2-8° C. one hour, then room temperature), at 2 h
# [22] = 0.1 mg/mL in Lactated Ringer's, Experiment 1 (2-8° C. one hour, then room temperature), at 3 h
# [23] = 0.1 mg/mL in Lactated Ringer's, Experiment 1 (2-8° C. one hour, then room temperature), at 4 h
# [24] = 0.1 mg/mL in Lactated Ringer's, Experiment 2 (2-8° C. ten hours, then room temperature), at 0 h
# [25] = 0.1 mg/mL in Lactated Ringer's, Experiment 2 (2-8° C. ten hours, then room temperature), at 10 h
# [26] = 0.1 mg/mL in Lactated Ringer's, Experiment 2 (2-8° C. ten hours, then room temperature), at 11 h
# [27] = 0.1 mg/mL in Lactated Ringer's, Experiment 2 (2-8° C. ten hours, then room temperature), at 12 h
# [28] = about 1.0 mg/mL in 0.9% NaCl, Experiment 1 (2-8° C. one hour, then room temperature), at 0 h
# [29] = about 1.0 mg/mL in 0.9% NaCl, Experiment 1 (2-8° C. one hour, then room temperature), at 1 h
# [30] = about 1.0 mg/mL in 0.9% NaCl, Experiment 1 (2-8° C. one hour, then room temperature), at 2 h
# [31] = about 1.0 mg/mL in 0.9% NaCl, Experiment 1 (2-8° C. one hour, then room temperature), at 3 h
# [32] = about 1.0 mg/mL in 0.9% NaCl, Experiment 1 (2-8° C. one hour, then room temperature), at 4 h
# [33] = about 1.0 mg/mL in 0.9% NaCl, Experiment 2 (2-8° C. ten hours, then room temperature), at 0 h
# [34] = about 1.0 mg/mL in 0.9% NaCl, Experiment 2 (2-8° C. ten hours, then room temperature), at 10 h
# [35] = about 1.0 mg/mL in 0.9% NaCl, Experiment 2 (2-8° C. ten hours, then room temperature), at 11 h
# [36] = about 1.0 mg/mL in 0.9% NaCl, Experiment 2 (2-8° C. ten hours, then room temperature), at 12 h
# [37] = about 1.0 mg/mL in 5% Dextrose, Experiment 1 (2-8° C. one hour, then room temperature), at 0 h
# [38] = about 1.0 mg/mL in 5% Dextrose, Experiment 1 (2-8° C. one hour, then room temperature), at 1 h
# [39] = about 1.0 mg/mL in 5% Dextrose, Experiment 1 (2-8° C. one hour, then room temperature), at 2 h
# [40] = about 1.0 mg/mL in 5% Dextrose, Experiment 1 (2-8° C. one hour, then room temperature), at 3 h
# [41] = about 1.0 mg/mL in 5% Dextrose, Experiment 1 (2-8° C. one hour, then room temperature), at 4 h
# [42] = about 1.0 mg/mL in 5% Dextrose, Experiment 2 (2-8° C. ten hours, then room temperature), at 0 h
# [43] = about 1.0 mg/mL in 5% Dextrose, Experiment 2 (2-8° C. ten hours, then room temperature), at 10 h
# [44] = about 1.0 mg/mL in 5% Dextrose, Experiment 2 (2-8° C. ten hours, then room temperature), at 11 h
# [45] = about 1.0 mg/mL in 5% Dextrose, Experiment 2 (2-8° C. ten hours, then room temperature), at 12 h
# [46] = about 1.0 mg/mL in Lactated Ringer's, Experiment 1 (2-8° C. one hour, then room temperature), at 0 h
# [47] = about 1.0 mg/mL in Lactated Ringer's, Experiment 1 (2-8° C. one hour, then room temperature), at 1 h
# [48] = about 1.0 mg/mL in Lactated Ringer's, Experiment 1 (2-8° C. one hour, then room temperature), at 2 h
# [49] = about 1.0 mg/mL in Lactated Ringer's, Experiment 1 (2-8° C. one hour, then room temperature), at 3 h
# [50] = about 1.0 mg/mL in Lactated Ringer's, Experiment 1 (2-8° C. one hour, then room temperature), at 4 h
# [51] = about 1.0 mg/mL in Lactated Ringer's, Experiment 2 (2-8° C. ten hours, then room temperature), at 0 h
# [52] = about 1.0 mg/mL in Lactated Ringer's, Experiment 2 (2-8° C. ten hours, then room temperature), at 10 h
# [53] = about 1.0 mg/mL in Lactated Ringer's, Experiment 2 (2-8° C. ten hours, then room temperature), at 11 h
# [54] = about 1.0 mg/mL in Lactated Ringer's, Experiment 2 (2-8° C. ten hours, then room temperature), at 12 h
smiles,measurement,setting,value
"Nc1ncn([C@H]2C[C@H](O)[C@@H](CO)O2)c(=O)n1 [Decitabine, 4-amino-1-(2-deoxy-β-D-erythro-pentofuranosyl)-1,3,5-triazin-2(1H)-one]",degradation in aqueous solution,,degrades rapidly
same,pH after the preparation of the infusion,0.1 mg/mL in 0.9% NaCl,6.7
same,Decitabine Content,[1],97.5%
same,Total Impurities,[1],(2.5%)
same,Decitabine Content,[2],96.9%
same,Total Impurities,[2],(3.2%)
same,Decitabine Content,[3],95.7%
same,Total Impurities,[3],(4.3%)
same,Decitabine Content,[4],94.1%
same,Total Impurities,[4],(6.0%)
same,Decitabine Content,[5],92.5%
same,Total Impurities,[5],(7.7%)
same,Decitabine Content,[6],97.8%
same,Total Impurities,[6],(2.2%)
same,Decitabine Content,[7],93.4%
same,Total Impurities,[7],(6.7%)
same,Decitabine Content,[8],92.3%
same,Total Impurities,[8],(7.7%)
same,Decitabine Content,[9],90.8%
same,Total Impurities,[9],(9.2%)
same,pH after the preparation of the infusion,0.1 mg/mL in 5% Dextrose,6.9
same,Decitabine Content,[10],97.4%
same,Total Impurities,[10],(2.6%)
same,Decitabine Content,[11],97.2%
same,Total Impurities,[11],(2.7%)
same,Decitabine Content,[12],96.4%
same,Total Impurities,[12],(3.6%)
same,Decitabine Content,[13],94.9%
same,Total Impurities,[13],(5.1%)
same,Decitabine Content,[14],93.6%
same,Total Impurities,[14],(6.4%)
same,Decitabine Content,[15],98.2%
same,Total Impurities,[15],(1.9%)
same,Decitabine Content,[16],94.9%
same,Total Impurities,[16],(5.2%)
same,Decitabine Content,[17],94.5%
same,Total Impurities,[17],(5.6%)
same,Decitabine Content,[18],93.3%
same,Total Impurities,[18],(6.7%)
same,pH after the preparation of the infusion,0.1 mg/mL in Lactated Ringer's,6.7
same,Decitabine Content,[19],98.3%
same,Total Impurities,[19],(1.7%)
same,Decitabine Content,[20],98.1%
same,Total Impurities,[20],(1.9%)
same,Decitabine Content,[21],97.0%
same,Total Impurities,[21],(3.0%)
same,Decitabine Content,[22],95.9%
same,Total Impurities,[22],(4.1%)
same,Decitabine Content,[23],94.9%
same,Total Impurities,[23],(5.2%)
same,Decitabine Content,[24],98.0%
same,Total Impurities,[24],(2.1%)
same,Decitabine Content,[25],93.4%
same,Total Impurities,[25],(6.7%)
same,Decitabine Content,[26],92.6%
same,Total Impurities,[26],(7.4%)
same,Decitabine Content,[27],91.8%
same,Total Impurities,[27],(8.3%)
same,pH of maximum solution stability,5 mg/mL,6.8-7.0
same,pH deviation from neutral pH after the preparation of the infusion,Table 1 and Table 2 solutions,≤ 0.3 pH units
same,pH after the preparation of the infusion,about 1.0 mg/mL in 0.9% NaCl,6.7
same,Decitabine Content,[28],98.0%
same,Total Impurities,[28],(2.1%)
same,Decitabine Content,[29],96.8%
same,Total Impurities,[29],(3.3%)
same,Decitabine Content,[30],94.8%
same,Total Impurities,[30],(5.2%)
same,Decitabine Content,[31],92.8%
same,Total Impurities,[31],(7.3%)
same,Decitabine Content,[32],91.1%
same,Total Impurities,[32],(9.0%)
same,Decitabine Content,[33],97.4%
same,Total Impurities,[33],(2.7%)
same,Decitabine Content,[34],93.4%
same,Total Impurities,[34],(6.7%)
same,Decitabine Content,[35],92.5%
same,Total Impurities,[35],(7.6%)
same,Decitabine Content,[36],90.8%
same,Total Impurities,[36],(9.2%)
same,pH after the preparation of the infusion,about 1.0 mg/mL in 5% Dextrose,7.1
same,Decitabine Content,[37],98.0%
same,Total Impurities,[37],(2.0%)
same,Decitabine Content,[38],97.0%
same,Total Impurities,[38],(3.1%)
same,Decitabine Content,[39],95.6%
same,Total Impurities,[39],(4.4%)
same,Decitabine Content,[40],93.7%
same,Total Impurities,[40],(6.4%)
same,Decitabine Content,[41],91.9%
same,Total Impurities,[41],(8.1%)
same,Decitabine Content,[42],97.7%
same,Total Impurities,[42],(2.4%)
same,Decitabine Content,[43],94.5%
same,Total Impurities,[43],(5.5%)
same,Decitabine Content,[44],93.9%
same,Total Impurities,[44],(6.1%)
same,Decitabine Content,[45],93.0%
same,Total Impurities,[45],(7.1%)
same,pH after the preparation of the infusion,about 1.0 mg/mL in Lactated Ringer's,6.8
same,Decitabine Content,[46],98.1%
same,Total Impurities,[46],(2.0%)
same,Decitabine Content,[47],97.3%
same,Total Impurities,[47],(2.7%)
same,Decitabine Content,[48],96.2%
same,Total Impurities,[48],(3.8%)
same,Decitabine Content,[49],95.1%
same,Total Impurities,[49],(4.9%)
same,Decitabine Content,[50],93.7%
same,Total Impurities,[50],(6.4%)
same,Decitabine Content,[51],98.0%
same,Total Impurities,[51],(2.1%)
same,Decitabine Content,[52],94.1%
same,Total Impurities,[52],(5.9%)
same,Decitabine Content,[53],93.3%
same,Total Impurities,[53],(6.8%)
same,Decitabine Content,[54],91.8%
same,Total Impurities,[54],(8.2%)
same,visual inspection of solutions,all reconstituted and diluted solutions,clear and colorless
same,drug content in the infusion solution during infusion,infusions prepared and stored as instructed,above 90%
